Experimental findings from patent publication US10479795B2 (Incyte Corporation, priority 2016, dated 2019) are described below.

The test system of assay [1] is Phosphorylated Ribosomal Protein S6 (RPS6). Description: THP-1 RPS6 ELISA Assay. In kind it is cell-based, Human. To be noted: THP-1 cells, read-out: PI3Kγ_THP1_RPS6_ELISA IC50. An outline of the steps:
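Serum-starved THP-1 cells were preincubated with a concentration range of compound for 2 h at 37 °C, then stimulated with 10 nM MCP-1 for 15 min. Phospho-RPS6 in lysates was quantified by ELISA at 450 nm. IC50 came from percent inhibition versus log inhibitor concentration.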
(In general: In an ELISA, binding on a coated surface is turned into a signal by an enzyme label.)

In assay [2] the target is PI3Kγ (p110γ) Recombinant Human Protein (Homo sapiens (Human), UniProt P48736). Description: PI3K-γ Scintillation Proximity Assay. In kind it is biochemical. To be noted: read-out: PI3Kγ IC50. The procedure, abridged: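 Recombinant human p110γ assayed at room temperature in 20 mM MOPS pH 6.7, 10 mM MgCl2, 5 mM DTT, 0.03% CHAPS, 2% DMSO, with 20 μM PIP2 and 2 μM ATP plus [γ-33P]ATP. Product captured on WGA SPA beads overnight and counted; IC50 fitted from % of solvent-control activity versus log inhibitor concentration.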
On the technique in general: Scintillation proximity formats need no separation of bound from free tracer.

The target of assay [3] is PI3Kδ (p110δ/p85α) Recombinant Human Protein (Homo sapiens (Human), UniProt O00329). Description: PI3Kδ Scintillation Proximity Assay. It counts as biochemical. The procedure, abridged: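 Kinase reaction run at room temperature in 20 mM MOPS pH 6.7, 10 mM MgCl2, 5 mM DTT, 0.03% CHAPS with 20 μM PIP2, 2 μM ATP plus [γ-33P]ATP, 3.4 nM enzyme, 2% DMSO; 120 min. Quenched with WGA SPA beads/EDTA, counted by scintillation; IC50 from % solvent-control activity vs log concentration.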

Structures can show the parent of a compound that is named as a salt. Where two headings read alike, the source gives them in different places.

PI3Kδ (p110δ/p85α) Recombinant Human Protein, sequence (O00329 whole entry): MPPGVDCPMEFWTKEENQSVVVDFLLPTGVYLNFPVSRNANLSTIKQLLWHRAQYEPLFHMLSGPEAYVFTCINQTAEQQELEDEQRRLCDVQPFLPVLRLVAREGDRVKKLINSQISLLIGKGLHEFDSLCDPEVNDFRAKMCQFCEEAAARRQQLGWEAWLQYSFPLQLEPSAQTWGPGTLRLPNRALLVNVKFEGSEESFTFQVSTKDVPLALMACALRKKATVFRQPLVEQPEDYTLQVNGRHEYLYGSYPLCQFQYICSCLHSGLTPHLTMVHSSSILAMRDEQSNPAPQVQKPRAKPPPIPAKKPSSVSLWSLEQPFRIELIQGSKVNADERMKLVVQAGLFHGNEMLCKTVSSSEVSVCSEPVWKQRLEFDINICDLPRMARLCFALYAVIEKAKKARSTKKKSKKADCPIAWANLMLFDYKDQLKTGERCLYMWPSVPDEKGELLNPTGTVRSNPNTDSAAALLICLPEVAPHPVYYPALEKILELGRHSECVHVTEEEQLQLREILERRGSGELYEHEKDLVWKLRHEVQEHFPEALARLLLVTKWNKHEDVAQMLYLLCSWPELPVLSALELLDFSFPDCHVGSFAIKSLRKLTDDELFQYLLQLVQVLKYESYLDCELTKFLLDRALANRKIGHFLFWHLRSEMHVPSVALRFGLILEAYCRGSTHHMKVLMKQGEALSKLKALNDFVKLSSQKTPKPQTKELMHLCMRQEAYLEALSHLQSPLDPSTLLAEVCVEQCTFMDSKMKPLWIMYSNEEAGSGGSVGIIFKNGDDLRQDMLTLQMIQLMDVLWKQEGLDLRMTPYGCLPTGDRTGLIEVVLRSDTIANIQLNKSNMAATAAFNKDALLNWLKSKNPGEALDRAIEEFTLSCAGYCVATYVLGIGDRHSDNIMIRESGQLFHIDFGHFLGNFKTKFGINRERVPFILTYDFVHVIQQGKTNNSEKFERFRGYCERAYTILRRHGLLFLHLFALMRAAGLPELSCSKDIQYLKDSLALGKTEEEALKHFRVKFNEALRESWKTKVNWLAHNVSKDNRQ
PI3Kδ (p110δ/p85α) Recombinant Human Protein, sequence (P27986 whole entry partner): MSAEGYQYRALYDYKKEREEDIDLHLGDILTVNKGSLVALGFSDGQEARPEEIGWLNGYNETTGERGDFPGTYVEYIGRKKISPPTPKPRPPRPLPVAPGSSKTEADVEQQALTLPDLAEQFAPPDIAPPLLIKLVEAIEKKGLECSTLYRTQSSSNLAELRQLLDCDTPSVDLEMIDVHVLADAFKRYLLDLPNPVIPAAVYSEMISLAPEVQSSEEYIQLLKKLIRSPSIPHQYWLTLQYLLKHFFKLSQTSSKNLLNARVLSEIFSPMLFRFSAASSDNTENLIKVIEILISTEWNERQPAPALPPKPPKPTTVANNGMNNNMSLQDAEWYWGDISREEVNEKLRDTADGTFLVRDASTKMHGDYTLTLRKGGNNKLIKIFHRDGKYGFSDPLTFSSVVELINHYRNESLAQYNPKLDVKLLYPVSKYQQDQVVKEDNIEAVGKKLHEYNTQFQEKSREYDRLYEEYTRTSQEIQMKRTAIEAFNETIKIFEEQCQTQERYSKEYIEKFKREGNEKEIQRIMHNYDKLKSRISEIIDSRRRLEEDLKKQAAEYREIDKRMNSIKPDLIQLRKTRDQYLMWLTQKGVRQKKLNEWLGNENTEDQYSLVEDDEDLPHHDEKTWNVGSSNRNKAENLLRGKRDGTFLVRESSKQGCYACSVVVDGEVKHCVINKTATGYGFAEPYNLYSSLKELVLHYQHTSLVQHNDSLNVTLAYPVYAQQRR
PI3Kγ (p110γ) Recombinant Human Protein, sequence (P48736 whole entry): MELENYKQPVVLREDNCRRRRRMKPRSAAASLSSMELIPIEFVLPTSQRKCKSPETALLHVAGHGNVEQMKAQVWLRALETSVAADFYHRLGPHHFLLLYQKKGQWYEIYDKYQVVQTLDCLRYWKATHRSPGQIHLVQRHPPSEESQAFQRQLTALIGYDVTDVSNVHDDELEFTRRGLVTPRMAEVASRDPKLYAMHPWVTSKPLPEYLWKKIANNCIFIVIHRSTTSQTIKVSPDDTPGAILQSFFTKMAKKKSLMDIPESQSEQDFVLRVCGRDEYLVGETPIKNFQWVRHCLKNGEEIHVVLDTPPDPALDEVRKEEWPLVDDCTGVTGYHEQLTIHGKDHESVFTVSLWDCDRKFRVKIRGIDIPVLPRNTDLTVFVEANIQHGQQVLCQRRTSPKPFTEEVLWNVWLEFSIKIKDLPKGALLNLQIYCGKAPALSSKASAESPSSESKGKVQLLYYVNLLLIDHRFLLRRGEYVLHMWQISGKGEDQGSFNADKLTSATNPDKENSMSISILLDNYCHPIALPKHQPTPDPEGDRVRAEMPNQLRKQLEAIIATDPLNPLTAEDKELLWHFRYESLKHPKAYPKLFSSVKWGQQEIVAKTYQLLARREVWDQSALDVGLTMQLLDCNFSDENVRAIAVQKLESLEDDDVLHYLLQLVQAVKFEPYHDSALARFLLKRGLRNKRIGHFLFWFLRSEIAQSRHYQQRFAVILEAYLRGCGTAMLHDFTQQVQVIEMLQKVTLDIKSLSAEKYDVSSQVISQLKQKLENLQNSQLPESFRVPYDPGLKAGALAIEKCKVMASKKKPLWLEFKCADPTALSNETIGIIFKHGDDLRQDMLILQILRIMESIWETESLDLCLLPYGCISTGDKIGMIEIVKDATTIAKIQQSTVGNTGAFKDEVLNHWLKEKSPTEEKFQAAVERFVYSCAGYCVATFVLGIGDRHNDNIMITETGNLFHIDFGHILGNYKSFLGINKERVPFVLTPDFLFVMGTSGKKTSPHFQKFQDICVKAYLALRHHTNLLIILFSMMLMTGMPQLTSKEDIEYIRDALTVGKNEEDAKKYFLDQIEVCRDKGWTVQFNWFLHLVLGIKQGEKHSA

Turning to `[2H]C([2H])([2H])c1ccc(S(=O)(=O)NC23CCC(C#N)(C2)C3)cc1-c1cnc2c(N)ncnn12` [Example 253, 3-(4-Aminoimidazo[2,1-f][1,2,4]triazin-7-yl)-N-(4-cyanobicyclo[2.1.1]hexan-1-yl)-4-(methyl-d3)benzenesulfonamide (crystalline free base)], the IC50 (in general, the point on the concentration scale where inhibition reaches its midpoint) was less than 100 nM in assay [1] (Homo sapiens), less than 100 nM in assay [2] and 100 to 500 nM in assay [3].

Regarding `O=C(O)C(F)(F)F.[2H]C([2H])([2H])c1ccc(S(=O)(=O)NC23CCC(CO)(C2)C3)cc1-c1cnc2c(N)nc(C)cn12` [Example 383, 3-(8-Amino-6-methylimidazo[1,2-a]pyrazin-3-yl)-N-(4-(hydroxymethyl)bicyclo[2.1.1]hexan-1-yl)-4-(methyl-d3)benzenesulfonamide trifluoroacetate salt], the IC50 in assay [1] (Homo sapiens), in assay [2] and in assay [3] was less than 100 nM throughout.

As for `Cc1ccc(S(=O)(=O)NC23CC(C#N)(C2)C3)cc1-c1cnc2c(N)nc(C(F)(F)F)nn12` [Example 330, 3-(4-Amino-2-(trifluoromethyl)imidazo[1,2-f][1,2,4]triazin-7-yl)-N-(3-cyanobicyclo[1.1.1]pentan-1-yl)-4-methylbenzenesulfonamide trifluoroacetate salt], the IC50 in assay [1], in assay [2] and in assay [3] was less than 100 nM throughout.

In the case of `Cc1ccc(S(=O)(=O)NC23CC(c4cnco4)(C2)C3)cc1-c1cnc2c(N)nc(C(F)(F)F)cn12` [Example 279, 3-(8-Amino-6-(trifluoromethyl)imidazo[1,2-a]pyrazin-3-yl)-4-methyl-N-(3-(oxazol-5-yl)bicyclo[1.1.1]pentan-1-yl)benzenesulfonamide trifluoroacetate salt], the IC50 in assay [1] (Homo sapiens), in assay [2] and in assay [3] was less than 100 nM throughout.

On to `Cc1ccc(S(=O)(=O)N[C@H]2CC[C@H](O)CC2)cc1-c1cnc2c(N)nc(-c3cnn(CC(F)(F)F)c3)cn12` [Example 76, 3-{8-amino-6-[1-(2,2,2-trifluoroethyl)-1H-pyrazol-4-yl]imidazo[1,2-a]pyrazin-3-yl}-N-(trans-4-hydroxycyclohexyl)-4-methylbenzenesulfonamide], for which the IC50 was 100 to 500 nM in assay [1] (Homo sapiens), less than 100 nM in assay [2] and 100 to 500 nM in assay [3].

`Cc1ccc(S(=O)(=O)N[C@H]2CC[C@H](O)CC2)cc1-c1cnc2c(N)nc(-c3ccc(F)cc3)cn12` [Example 20, 3-[8-Amino-6-(4-fluorophenyl)imidazo[1,2-a]pyrazin-3-yl]-N-(trans-4-hydroxycyclohexyl)-4-methylbenzenesulfonamide]: the IC50 in assay [1] (Homo sapiens), in assay [2] and in assay [3] was less than 100 nM throughout.

With `COc1ncccc1-c1cn2c(-c3cc(S(C)(=O)=O)ccc3C)cnc2c(N)n1` [Example 477, 6-(2-Methoxypyridin-3-yl)-3-(2-methyl-5-(methylsulfonyl)phenyl)imidazo[1,2-a]pyrazin-8-amine trifluoroacetate], the results for the IC50 in assay [1], in assay [2] and in assay [3] were 100 to 500 nM, less than 100 nM and 100 to 500 nM, respectively.

For `Cc1ccc(S(=O)(=O)NC23CCC(C#N)(CC2)CC3)cc1-c1cnc2c(N)ncnn12` [Example 187, 3-(4-aminoimidazo[2,1-f][1,2,4]triazin-7-yl)-N-(4-cyanobicyclo[2.2.2]octan-1-yl)-4-methylbenzenesulfonamide], the IC50 is 100 to 500 nM in assay [1] (Homo sapiens), less than 100 nM in assay [2] and 100 to 500 nM in assay [3].

Regarding `Cc1ccc(S(=O)(=O)N2CC3(C2)CC(O)(C(F)(F)F)C3)cc1-c1cnc2c(N)ncnn12` [Example 141, 2-((3-(4-aminoimidazo[2,1-f][1,2,4]triazin-7-yl)-4-methylphenyl)sulfonyl)-6-(trifluoromethyl)-2-azaspiro[3.3]heptan-6-ol], the IC50 in assay [1] (Homo sapiens) is 100 to 500 nM; in assay [2], less than 100 nM; in assay [3], 100 to 500 nM.

In the case of `Nc1nc(C(F)(F)F)nn2c(-c3cccc(S(=O)(=O)NC45CCC(CO)(C4)C5)c3)cnc12` [Example 411, 3-(4-Amino-2-(trifluoromethyl)imidazo[1,2-f][1,2,4]triazin-7-yl)-N-(4-(hydroxymethyl)bicyclo[2.1.1]hexan-1-yl)benzenesulfonamide trifluoroacetate salt], the results for the IC50 in assay [1], in assay [2] and in assay [3] were 100 to 500 nM, less than 100 nM and 100 to 500 nM, respectively.

Turning to `C[C@]1(O)CC[C@H](NS(=O)(=O)c2cc(-c3cnc4c(N)ncnn34)ccc2Cl)CC1` [Example 377, 5-(4-aminoimidazo[2,1-f][1,2,4]triazin-7-yl)-2-chloro-N-((1r,4r)-4-hydroxy-4-methylcyclohexyl)benzenesulfonamide], the IC50 in assay [1], in assay [2] and in assay [3] was less than 100 nM in each case.

As to `Cc1ccc(S(=O)(=O)N2CC[C@H](O)C2)cc1-c1cnc2c(N)ncnn12` [Example 197, (S)-1-((3-(4-Aminoimidazo[2,1-f][1,2,4]triazin-7-yl)-4-methylphenyl)sulfonyl)pyrrolidin-3-ol], the IC50 is 500 to 1000 nM in assay [1] (Homo sapiens), less than 100 nM in assay [2] and 500 to 2000 nM in assay [3].

`CCc1cn2c(-c3cc(S(=O)(=O)N[C@H]4CC[C@H](O)CC4)ccc3C)cnc2c(N)n1` [Example 38, 3-(8-Amino-6-ethylimidazo[1,2-a]pyrazin-3-yl)-N-(trans-4-hydroxycyclohexyl)-4-methylbenzenesulfonamide]: the half-inhibitory concentration (IC50) in assay [1] (Homo sapiens), in assay [2] and in assay [3] was less than 100 nM in each case.

As to `Cc1ccc(S(=O)(=O)NCCCO)cc1-c1cnc2c(N)nccn12` [Example 50, 3-(8-Aminoimidazo[1,2-a]pyrazin-3-yl)-N-(3-hydroxypropyl)-4-methylbenzenesulfonamide], the 50% inhibitory concentration (IC50) in assay [1] (Homo sapiens) was more than 1000 nM; in assay [2], less than 100 nM; in assay [3] it was 500 to 2000 nM.

In the case of `Cc1c(F)cc(S(=O)(=O)NC23CCC(C#N)(C2)C3)cc1-c1cnc2c(N)nc(C(F)(F)F)nn12` [Example 416, 3-(4-Amino-2-(trifluoromethyl)imidazo[1,2-f][1,2,4]triazin-7-yl)-N-(4-cyanobicyclo[2.1.1]hexan-1-yl)-5-fluoro-4-methylbenzenesulfonamide trifluoroacetate salt], the IC50 in assay [1] was less than 100 nM; in assay [2] it was less than 100 nM; in assay [3], 100 to 500 nM.

With `Cc1ccc(S(=O)(=O)N[C@H]2CC[C@H](O)CC2)cc1-c1cnc2c(N)cccn12` [Example 1, 3-(8-Aminoimidazo[1,2-a]pyridin-3-yl)-N-(trans-4-hydroxycyclohexyl)-4-methylbenzenesulfonamide trifluoroacetate], the results for the IC50 in assay [1] (Homo sapiens), in assay [2] and in assay [3] were more than 1000 nM, 100 to 500 nM and 500 to 2000 nM, respectively.

In the case of `Cc1ccc(S(=O)(=O)N[C@H]2CC[C@H](CC#N)CC2)cc1-c1cnc2c(N)ncnn12` [Example 184, 3-(4-aminoimidazo[2,1-f][1,2,4]triazin-7-yl)-N-(trans-4-(cyanomethyl)cyclohexyl)-4-methylbenzenesulfonamide trifluoroacetate], the IC50 in assay [1] (Homo sapiens), in assay [2] and in assay [3] was less than 100 nM each time.
